Series [1] is described as follows: Compound cytotoxicity, XTT-based colorimetric assay. It counts as cell-based. The note with it: human, uninfected MT2 cells, day 4, XTT. The essentials: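 Run under the antiviral-assay protocol but without virus. Viability was read on day 4 and CC50 values were derived from the readout.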
A general note: Tetrazolium dyes change colour on reduction, which living cells bring about.

The subject of series [2] is recombinant NL4-3 virus (nef section replaced with Renilla luciferase gene) in MT-2 cells. The experiment in a line: HIV cell culture assay (antiviral activity, luciferase readout). The note with it: Renilla, NL43, MT-2 cells infected for 4-5 days with recombinant NL4-3 Renilla luciferase virus, serial dilutions of compound. It counts as cell-based. The procedure, abridged: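 Test compound in serial dilution was present while MT-2 cells were infected for 4–5 days with recombinant NL4-3 virus made in 293T cells. Antiviral activity was quantified as Renilla luciferase activity, read with a live-cell substrate. EC50 came from the median-effect equation.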

Structures are written as SMILES. pEC50: −log10 of the molar value.

What is called CC50 is the concentration that lowers cell viability or growth by half. Low readings indicate greater toxicity to the cells, high ones lower toxicity to the cells. In general, pEC50 refers to the negative decadic logarithm of the EC50, by convention in mol/L. `Cn1nc(NS(C)(=O)=O)c2c(Cl)ccc(-n3c([C@H](Cc4cc(F)cc(F)c4)NC(=O)Cn4nc(C(F)F)c5c4C(F)(F)[C@@H]4C[C@H]54)nc4cc(-c5ccc(Oc6ccccc6)cc5)ccc4c3=O)c21` (atropisomer, axis not shown; (aR)) [Example 14, N-((S)-1-(3-(4-chloro-1-methyl-3-(methylsulfonamido)-1H-indazol-7-yl)-4-oxo-7-(4-phenoxyphenyl)-3,4-dihydroquinazolin-2-yl)-2-(3,5-difluorophenyl)ethyl)-2-((3bS,4aR)-3-(difluoromethyl)-5,5-difluoro-3b,4,4a,5-tetrahydro-1H-cyclopropa[3,4]cyclopenta[1,2-c]pyrazol-1-yl)acetamide] returned a CC50 at 4 day in series [1] above 1000 nM. Moreover, the pEC50 in series [2] was 8.01.
In the case of `Cc1ccccc1-c1ccc2c(=O)n(-c3ccc(Cl)c4c(NS(C)(=O)=O)nn(C)c34)c([C@H](Cc3cc(F)cc(F)c3)NC(=O)Cn3nc(C(F)F)c4c3C(F)(F)[C@@H]3C[C@H]43)nc2c1` (atropisomer, axis not shown; (aR)) [Example 88, N-((S)-1-(3-(4-chloro-1-methyl-3-(methylsulfonamido)-1H-indazol-7-yl)-4-oxo-7-(o-tolyl)-3,4-dihydroquinazolin-2-yl)-2-(3,5-difluorophenyl)ethyl)-2-((3bS,4aR)-3-(difluoromethyl)-5,5-difluoro-3b,4,4a,5-tetrahydro-1H-cyclopropa[3,4]cyclopenta[1,2-c]pyrazol-1-yl)acetamide], the CC50 at 4 day in series [1] is above 1000 nM. In series [2], the pEC50 is 9.14.
The corresponding values for `Cc1ccccc1-c1ccc2c(=O)n(-c3ccc(S(=O)(=O)N4CCOCC4)cc3)c([C@H](Cc3cc(F)cc(F)c3)NC(=O)Cn3ccc(C4CC4)n3)nc2c1` [Example 143, (S)-2-(3-cyclopropyl-1H-pyrazol-1-yl)-N-(2-(3,5-difluorophenyl)-1-(3-(4-(morpholinosulfonyl)phenyl)-4-oxo-7-(o-tolyl)-3,4-dihydroquinazolin-2-yl)ethyl)acetamide] are above 1000 nM and 7.38.
The corresponding values for `Cn1nc(NS(C)(=O)=O)c2c(Cl)ccc(-n3c([C@H](Cc4cc(F)cc(F)c4)NC(=O)Cn4nc(C(F)F)c5c4C(F)(F)[C@@H]4C[C@H]54)nc4cc(-c5cccc(S(C)(=O)=O)c5)ccc4c3=O)c21` (atropisomer, axis not shown; (aR)) [Example 54, N-((S)-1-(3-(4-chloro-1-methyl-3-(methylsulfonamido)-1H-indazol-7-yl)-7-(3-(methylsulfonyl)phenyl)-4-oxo-3,4-dihydroquinazolin-2-yl)-2-(3,5-difluorophenyl)ethyl)-2-((3bS,4aR)-3-(difluoromethyl)-5,5-difluoro-3b,4,4a,5-tetrahydro-1H-cyclopropa[3,4]cyclopenta[1,2-c]pyrazol-1-yl)acetamide] are above 1000 nM and 9.68.
The corresponding values for `Cn1nc(NS(C)(=O)=O)c2c(Cl)ccc(-n3c([C@H](Cc4cc(F)cc(F)c4)NC(=O)Cn4nc(C(F)F)c5c4C(F)(F)[C@@H]4C[C@H]54)nc4cc(-c5ccc(F)cc5F)ccc4c3=O)c21` [Example 187, N-((S)-1-(3-(4-chloro-1-methyl-3-(methylsulfonamido)-1H-indazol-7-yl)-7-(2,4-difluorophenyl)-4-oxo-3,4-dihydroquinazolin-2-yl)-2-(3,5-difluorophenyl)ethyl)-2-((3bS,4aR)-3-(difluoromethyl)-5,5-difluoro-3b,4,4a,5-tetrahydro-1H-cyclopropa[3,4]cyclopenta[1,2-c]pyrazol-1-yl)acetamide] are above 1000 nM and 9.55.
As to `Cc1cc(C)nc(-c2ccc3c(=O)n(-c4ccc(Cl)c5c(NS(=O)(=O)C6CC6)nn(CC(F)F)c45)c([C@H](Cc4cc(F)cc(F)c4)NC(=O)Cn4nc(C(F)F)c5c4C(F)(F)[C@@H]4C[C@H]54)nc3c2)n1` (atropisomer, axis not shown; (aR)) [Example 129, N-((S)-1-(3-(4-chloro-3-(cyclopropanesulfonamido)-1-(2,2-difluoroethyl)-1H-indazol-7-yl)-7-(4,6-dimethylpyrimidin-2-yl)-4-oxo-3,4-dihydroquinazolin-2-yl)-2-(3,5-difluorophenyl)ethyl)-2-((3bS,4aR)-3-(difluoromethyl)-5,5-difluoro-3b,4,4a,5-tetrahydro-1H-cyclopropa[3,4]cyclopenta[1,2-c]pyrazol-1-yl)acetamide], the CC50 at 4 day in series [1] is above 500 nM. In series [2], the pEC50 was 10.02.
The corresponding values for `Cn1nc(NS(C)(=O)=O)c2c(Cl)ccc(-n3c([C@H](Cc4cc(F)cc(F)c4)NC(=O)Cn4nc(C(F)F)c5c4C(F)(F)[C@@H]4C[C@H]54)nc4cc(-c5cncnc5)ccc4c3=O)c21` (atropisomer, axis not shown; (aR)) [Example 84, N-((S)-1-(3-(4-chloro-1-methyl-3-(methylsulfonamido)-1H-indazol-7-yl)-4-oxo-7-(pyrimidin-5-yl)-3,4-dihydroquinazolin-2-yl)-2-(3,5-difluorophenyl)ethyl)-2-((3bS,4aR)-3-(difluoromethyl)-5,5-difluoro-3b,4,4a,5-tetrahydro-1H-cyclopropa[3,4]cyclopenta[1,2-c]pyrazol-1-yl)acetamide] are above 1000 nM and 10.17.
The like results for `O=C(Cn1nc(C(F)F)c2c1C(F)(F)[C@@H]1C[C@H]21)N[C@@H](Cc1cc(F)cc(F)c1)c1nc2cc(-c3cccc(F)c3F)ccc2c(=O)n1-c1ccc(S(=O)(=O)N2CCOCC2)cc1` [Example 149, 2-((3bS,4aR)-3-(difluoromethyl)-5,5-difluoro-3b,4,4a,5-tetrahydro-1H-cyclopropa[3,4]cyclopenta[1,2-c]pyrazol-1-yl)-N-((S)-2-(3,5-difluorophenyl)-1-(7-(2,3-difluorophenyl)-3-(4-(morpholinosulfonyl)phenyl)-4-oxo-3,4-dihydroquinazolin-2-yl)ethyl)acetamide] were, in that order, above 1000 nM and 8.09.
`Cc1cc(C)nc(-c2ccc3c(=O)n(-c4ccc(Cl)c5c(NS(C)(=O)=O)nn(CC(F)(F)F)c45)c([C@H](Cc4cc(F)cc(F)c4)NC(=O)Cn4nc(C(F)F)c5c4C(F)(F)[C@@H]4C[C@H]54)nc3c2)n1` [Example 164, N-((S)-1-(3-(4-chloro-3-(methylsulfonamido)-1-(2,2,2-trifluoroethyl)-1H-indazol-7-yl)-7-(4,6-dimethylpyrimidin-2-yl)-4-oxo-3,4-dihydroquinazolin-2-yl)-2-(3,5-difluorophenyl)ethyl)-2-((3bS,4aR)-3-(difluoromethyl)-5,5-difluoro-3b,4,4a,5-tetrahydro-1H-cyclopropa[3,4]cyclopenta[1,2-c]pyrazol-1-yl)acetamide]: the CC50 at 4 day in series [1] was above 500 nM. For the same compound, in series [2], the pEC50 is 10.02.
Take `Cn1nc(NS(C)(=O)=O)c2c(Cl)ccc(-n3c([C@H](Cc4cc(F)cc(F)c4)NC(=O)Cn4nc(C(F)F)c5c4C(F)(F)[C@@H]4C[C@H]54)nc4cc(-c5ccccc5F)ccc4c3=O)c21` (single isomer, unassigned) [Example 2]: the CC50 at 4 day in series [1] is above 1000 nM. For the same compound, in series [2], the pEC50 was 9.28.

Values taken from US11505543B2, “4-oxo-3,4-dihydroquinazoline compounds as inhibitors of human immunodeficiency virus replication” (VIIV HEALTHCARE UK (NO.5) LIMITED, priority 2018, dated 2022).
